In this assay the test system is MG63 osteosarcoma cells. Kind of assay: In vitro MG63 osteosarcoma proliferation assay, Test (c). The format is cell-based. The following applies: Homo sapiens, MG-63, BrdU, 72 hours, read-out: IC50 versus MG63 osteosarcoma proliferation. Here is the method: This assay determined the ability of a test compound to inhibit the proliferation of MG63 osteosarcoma cells (ATCC CCL 1427):
MG63 cells were seeded at 1.5×10^3 cells per well into 96-well clear tissue culture-treated assay plates (Corning Life Sciences; Catalogue No. 3595) to which had been added 60 μl per well of test medium comprising DMEM without phenol red, 1% charcoal-stripped FCS and 2 mM glutamine and the cells were incubated overnight at 37° C. with 7.5% CO2.
Test compounds were solubilised in DMSO to provide a 10 mM stock solution. Aliquots of the stock solution were diluted with the test medium described above and 20 μl aliquots of each dilution were added to appropriate wells. Serial dilutions were made to give a range of test concentrations. […]
BrdU labelling reagent (Roche Diagnostics Ltd., Lewes, East Sussex, UK; Catalogue No. 647 229) was diluted by a factor of 1:100 in DMEM medium containing 1% charcoal stripped FCS and aliquots (10 μl) were added to each well to give a final concentration of 10 μM. […] Aqueous sulphuric acid (1M; 50 μl) was added to the appropriate wells to stop any further reaction and the absorbance of the wells was measured at 450 nm. The extent of inhibition of cellular proliferation at a range of concentrations of each test compound was determined and an anti-proliferative IC50 value was derived.

Consider `COc1cc2ncnc(Oc3cnn(CC(=O)Nc4cccc5c4OCO5)c3)c2cc1OC` [Example 2, N-(2,3-methylenedioxyphenyl)-2-[4-(6,7-dimethoxyquinazolin-4-yloxy)pyrazol-1-yl]acetamide], for which the IC50 is approximately 40 nM.

For the origin of these results see US20090036474A1, “Quinazoline derivatives for use against cancer” (priority 2004, published 2009).
